What was measured:
[1] = target: nucleotide-binding domain (NBD) of human HSC70 (HSC70-NBD residues 1–381) (Homo sapiens, UniProt P11142); test: SPR affinity against immobilised HSC70-NBD; conditions: for fold increase in affinity compared to adenosine 1: comparator adenosine 1; for binding / affinity in words: SPR, HSC70-NBD, concentrations up to 1 mM; for fold improvement in affinity compared to 8-N-methylaminoadenosine 4: comparator 4 (Table 1, entry 2)
HSP70 = conditions: previously described affinity of ADP for HSP70; cited from earlier work

Chain of nucleotide-binding domain (NBD) of human HSC70 (HSC70-NBD residues 1–381) (P11142 1-381): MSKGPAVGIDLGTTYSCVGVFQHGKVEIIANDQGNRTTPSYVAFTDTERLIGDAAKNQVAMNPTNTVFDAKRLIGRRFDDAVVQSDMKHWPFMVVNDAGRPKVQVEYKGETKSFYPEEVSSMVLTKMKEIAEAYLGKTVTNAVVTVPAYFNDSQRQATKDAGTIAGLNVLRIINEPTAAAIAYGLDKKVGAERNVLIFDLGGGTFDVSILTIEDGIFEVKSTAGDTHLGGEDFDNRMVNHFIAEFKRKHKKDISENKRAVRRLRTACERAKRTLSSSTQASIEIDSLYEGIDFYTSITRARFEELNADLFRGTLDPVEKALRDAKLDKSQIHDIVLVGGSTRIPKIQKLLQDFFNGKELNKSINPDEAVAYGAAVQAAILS

Nc1ncnc2c1nc(N)n2[C@@H]1O[C@H](CO)[C@@H](O)[C@H]1O [Compound 3, 8-aminoadenosine, reference compound]
fold increase in affinity compared to adenosine 1 ([1]; SPR KD): 16 fold

CNc1nc2c(N)ncnc2n1[C@@H]1O[C@H](CO)[C@@H](O)[C@H]1O [Compound 4, (2R,3R,4S,5R)-2-(6-Amino-8-(methylamino)-9H-purin-9-yl)-5-(hydroxymethyl)tetrahydrofuran-3,4-diol]
fold drop in affinity compared to 8-aminoadenosine 3 ([1]; SPR KD, comparator 3): 2.5 fold

COc1nc2c(N)ncnc2n1[C@@H]1O[C@H](CO)[C@@H](O)[C@H]1O [Compound 6, (2R,3R,4S,5R)-2-(6-Amino-8-methoxy-9H-purin-9-yl)-5-(hydroxymethyl)tetrahydrofuran-3,4-diol]
binding / affinity in words [1]: complete loss of activity

CNc1nc2c(N)ncnc2n1[C@@H]1O[C@H](C)[C@@H](O)[C@H]1O [Compound 7, (2R,3R,4S,5R)-2-(6-Amino-8-(methylamino)-9H-purin-9-yl)-5-methyltetrahydrofuran-3,4-diol]
fold drop in affinity compared with 8-N-methylaminoadenosine 4 ([1]; SPR KD, comparator 4): 1.6 fold

Nc1ncnc2c1ccn2[C@@H]1O[C@H](CO)[C@@H](O)[C@H]1O [Compound 8, Tubercidin, reference compound]
fold increase in affinity compared to adenosine 1 ([1]; SPR KD): 4 fold

N#Cc1cn([C@@H]2O[C@H](CO)[C@@H](O)[C@H]2O)c2ncnc(N)c12 [Compound 9, Toyocamycin, reference compound]
binding / affinity in words [1]: comparable affinity to adenosine 1

NC(=O)c1cn([C@@H]2O[C@H](CO)[C@@H](O)[C@H]2O)c2ncnc(N)c12 [Compound 10, Sangivamycin, reference compound]
fold increase in affinity compared to adenosine 1 ([1]; SPR KD): 35 fold
half-life ([1]; SPR off-rate analysis): too short to be observed

CNc1c(C#N)c2c(N)ncnc2n1[C@@H]1O[C@H](CO)[C@@H](O)[C@H]1O [Compound 12, 4-Amino-7-((2R,3R,4S,5R)-3,4-dihydroxy-5-(hydroxymethyl)tetrahydrofuran-2-yl)-6-(methylamino)-7H-pyrrolo[2,3-d]pyrimidine-5-carbonitrile]
fold improvement in affinity compared to 8-N-methylaminoadenosine 4 ([1]; SPR KD): 5 fold
fold improvement in activity compared to toyocamycin 9 ([1]; SPR KD, comparator 9): 27 fold

CNc1c(C(N)=O)c2c(N)ncnc2n1[C@@H]1O[C@H](CO)[C@@H](O)[C@H]1O [Compound 13, 4-Amino-7-((2R,3R,4S,5R)-3,4-dihydroxy-5-(hydroxymethyl)tetrahydrofuran-2-yl)-6-(methylamino)-7H-pyrrolo[2,3-d]pyrimidine-5-carboxamide]
fold drop in affinity compared to sangivamycin 10 ([1]; SPR KD, comparator 10): 7 fold

N#Cc1c(NCc2ccccc2)n([C@@H]2O[C@H](CO)[C@@H](O)[C@H]2O)c2ncnc(N)c12 [Compound 14, 4-Amino-6-(benzylamino)-7-((2R,3R,4S,5R)-3,4-dihydroxy-5-(hydroxymethyl)tetrahydrofuran-2-yl)-7H-pyrrolo[2,3-d]pyrimidine-5-carbonitrile]
binding / affinity in words [1]: little change in affinity

Nc1ncnc2c1nc(NCc1ccccc1)n2[C@@H]1O[C@H](CO)[C@@H](O)[C@H]1O [Compound 15, (2R,3R,4S,5R)-2-(6-Amino-8-(benzylamino)-9H-purin-9-yl)-5-(hydroxymethyl)tetrahydrofuran-3,4-diol]
fold improvement in affinity compared to 8-N-methylaminoadenosine 4 ([1]; SPR KD): 12 fold

Nc1ncnc2c1ncn2[C@@H]1O[C@H](COP(=O)(O)OP(=O)(O)O)[C@@H](O)[C@H]1O [Compound 16, adenosine diphosphate]
Kd (HSP70): 500 nM

Nc1ncnc2c1nc(NCc1ccc(Cl)cc1)n2[C@@H]1O[C@H](CO)[C@@H](O)[C@H]1O [Compound 18, (2R,3R,4S,5R)-2-(6-Amino-8-((4-chlorobenzyl)amino)-9H-purin-9-yl)-5-(hydroxymethyl)tetrahydrofuran-3,4-diol]
fold improvement in affinity compared to 8-N-methylaminoadenosine 4 ([1]; SPR KD): 60 fold
fold improvement in affinity compared to compound 15 ([1]; SPR KD, comparator 15): 5 fold
